Experimental data reported in US7208169B2, “Biphenyl carboxamides” (priority 2002, dated 2007).
Like-named read-outs stand apart in the source and are kept apart here.

Tests used:
[1] = logP determination by HPLC on reversed-phase column (EEC Directive 79/831 Annex V.A8); assay type: physicochemical; conditions: pH 2.3, C18, 43° C., 0.1% aqueous phosphoric acid/acetonitrile, read-out: logP (pH2.3)
Protocol: The logP values given in the Preparation Examples were determined in accordance with EEC Directive 79/831 Annex V.A8 by HPLC (High Performance Liquid Chromatography) using a reversed-phase column (C 18). Temperature: 43° C.
Mobile phases for the determination in the acidic range: 0.1% aqueous phosphoric acid, acetonitrile; linear gradient from 10% acetonitrile to 90% acetonitrile.
Calibration was carried out using unbranched alkan-2-ones (having 3 to 16 carbon atoms) with known logP values (determination of the logP values by the retention times using linear interpolation between two successive alkanones).

Alternaria solani = assay: Alternaria test (tomato)/protective; assay type: in vivo; conditions: application rate 750 g/ha, protective, evaluation 7 days after inoculation
Protocol: Alternaria Test (Tomato)/Protective
• 49 parts by weight of N,N-dimethylformamide Emulsifier: • 1 part by weight of alkylaryl polyglycol ether
(§1) To produce a suitable preparation of active compound, 1 part by weight of active compound is mixed with the stated amounts of solvent and emulsifier, and the concentrate is diluted with water to the desired concentration.
To test for protective activity, young tomato plants are sprayed with the preparation of active compound at the stated application rate. 1 day after the treatment, the plants are inoculated with a spore suspension of Alternaria solani and then remain at 100% relative humidity and at 20° C. for 24 h. The plants then remain at 96% relative atmospheric humidity and a temperature of 20° C.
(§2) Evaluation is carried out 7 days after the inoculation. 0% means an efficacy which corresponds to that of the control, whereas an efficacy of 100% means that no infection is observed.

Podosphaera leucotricha = assay: Podosphaera test (apple)/protective; assay type: in vivo; conditions: application rate 100 g/ha, protective, evaluation 10 days after inoculation
Protocol: Podosphaera Test (Apple)/Protective
(§3) • 24.5 parts by weight of acetone • 24.5 parts by weight of dimethylacetamide Emulsifier: • 1.0 part by weight of alkylaryl polyglycol ether
(§4) To produce a suitable preparation of active compound, 1 part by weight of active compound is mixed with the stated amounts of solvents and emulsifier, and the concentrate is diluted with water to the desired concentration.
(§5) To test for protective activity, young plants are sprayed with the preparation of active compound at the stated application rate. After the spray coating has dried on, the plants are inoculated with an aqueous spore suspension of the apple mildew pathogen Podosphaera leucotricha. The plants are then placed in a greenhouse at about 23° C. and a relative atmospheric humidity of about 70%.
(§6) Evaluation is carried out 10 days after the inoculation. 0% means an efficacy which corresponds to that of the control, whereas an efficacy of 100% means that no infection is observed.

Sphaerotheca fuliginea = assay: Sphaerotheca test (cucumber)/protective; assay type: in vivo; conditions: Podosphaera fuliginea, 168 h, application rate 100 g/ha, protective, evaluation 7 days after inoculation, read-out: Efficacy in %
Protocol: Sphaerotheca Test (Cucumber)/Protective
as §3, §4
as §5, with “Sphaerotheca fuliginea.” for “the apple mildew pathogen Podosphaera leucotricha.”
as §2

Venturia inaequalis = assay: Venturia test (apple)/protective; assay type: in vivo; conditions: application rate 100 g/ha, protective, evaluation 10 days after inoculation
Protocol: Venturia Test (Apple)/Protective
as §3, §4
To test for protective activity, young plants are sprayed with the preparation of active compound at the stated application rate. After the spray coating has dried on, the plants are inoculated with an aqueous conidia suspension of the apple scab pathogen Venturia inaequalis and then remain in an incubation cabin at about 20° C. in 100% relative atmospheric humidity for 1 day.
The plants are then placed in a greenhouse at about 21° C. and a relative atmospheric humidity of about 90%.
as §6

Puccinia recondita = assay: Puccinia test (wheat)/protective; assay type: in vivo; conditions: application rate 500 g/ha, protective, evaluation 10 days after inoculation
Protocol: Puccinia Test (Wheat)/Protective
• 25 parts by weight of N,N-dimethylacetamide Emulsifier: • 0.6 part by weight of alkylaryl polyglycol ether
as §1
To test for protective activity, young plants are sprayed with the preparation of active compound at the stated application rate. After the spray coating has dried on, the plants are sprayed with a conidia suspension of Puccinia recondita. The plants remain in an incubation cabin at 20° C. and 100% relative atmospheric humidity for 48 hours.
The plants are then placed in a greenhouse at a temperature of about 20° C. and a relative atmospheric humidity of 80% to promote the development of rust pustules.
as §6

Coriolus versicolor = assay: Inhibitory test using a giant colony of Basidiomycetes; assay type: cell-based; conditions: Trametes versicolor; 6 ppm active compound in nutrient agar; 26° C.; growth of fungal threads
Protocol: Inhibitory Test Using a Giant Colony of Basidiomycetes Mycelium pieces were punched out of a giant colony of the Basidiomycetes species Coriolus versicolor and incubated at 26° C. on a nutrient agar medium containing malt extract peptone. The inhibition of the growth of the fungal threads on active-compound-containing nutrient media was compared to the longitudinal growth on nutrient media without added active compound and rated as inhibition in percent. In this test, for example, the following compounds according to the invention of the Preparation Examples show good activity: […]

SMILES | chromatographic logP ([1]; reversed-phase C18 HPLC column) | Efficacy in % (Alternaria solani) [%] | chromatographic logP [1] | Efficacy in % (Podosphaera leucotricha) [%] | pest or weed control at 100 g/ha (Sphaerotheca fuliginea) [%] | Efficacy in % (Venturia inaequalis) [%] | Efficacy in % (Puccinia recondita) [%] | inhibition at 6 ppm (Coriolus versicolor) [%]
Cc1nn(C)c(F)c1C(=O)Nc1c(F)cc(F)cc1-c1ccc2c(c1)OCO2 [Example 15] | 2.34 | 95 |  |  |  |  |  | 
O=C(Nc1ccccc1-c1ccc2c(c1)OC(F)(F)O2)c1ccccc1C(F)(F)F [Example 3] |  | 94 | 3.94 | 100 | 98 |  |  | 
Cc1ccsc1C(=O)Nc1ccccc1-c1ccc2c(c1)OC(F)(F)O2 [Example 4] | 3.99 |  |  |  | 100 | 98 |  | 
OB(O)c1ccc2c(c1)OC(F)(F)C(F)(F)O2 [Example (V-1), 2,2,3,3-tetrafluoro-2,3-dihydro-1,4-benzodioxin-6-yl-boronic acid] | 2.49 |  |  |  |  |  |  | 
Cc1nn(C)c(F)c1C(=O)Nc1ccccc1-c1ccc2c(c1)OC(F)(F)C(F)(F)O2 [Example 1, 5-fluoro-1,3-dimethyl-N-[2-(2,2,3,3-tetrafluoro-2,3-dihydro-1,4-benzodioxin-6-yl)phenyl]-1H-pyrazole-4-carboxamide] | 3.77 |  |  | 100 | 98 | 100 | 100 | 100
Cn1cc(C(=O)Nc2ccccc2-c2ccc3c(c2)OC(F)(F)O3)c(C(F)(F)F)n1 [Example 2, N-[2-(2,2-difluoro-1,3-benzodioxol-5-yl)-phenyl]-1-methyl-3-(trifluoromethyl)-1H-pyrazol-4-carboxamide] | 3.37 | 100 |  | 100 | 100 | 100 |  | 
Cn1cc(C(=O)Nc2ccccc2I)c(C(F)(F)F)n1 [Example (IV-1), N-(2-iodophenyl)-1-methyl-3-(trifluoromethyl)-1H-pyrazole-4-carboxamide] | 2.46 |  |  |  |  |  |  | 
Cc1nn(C)c(F)c1C(=O)Nc1ccccc1-c1ccc2c(c1)OC(F)(F)O2 [Example 19] | 3.22 |  |  | 100 | 92 | 96 |  | 100
Cc1nc(C(F)(F)F)c(C(=O)Nc2ccccc2-c2ccc3c(c2)OC(F)(F)C(F)(F)O3)s1 [Example 10] | 3.94 |  |  | 100 | 100 | 100 |  | 
Cc1nc(C(F)(F)F)c(C(=O)Nc2ccccc2-c2ccc3c(c2)OC(F)(F)O3)s1 [Example 5] | 3.81 |  |  | 100 | 100 | 100 |  | 
O=C(Nc1ccccc1-c1ccc2c(c1)OC(F)(F)C(F)(F)O2)c1ccccc1C(F)(F)F [Example 6] |  |  | 5.93 | 100 | 100 | 99 |  | 
